{"source": "patent US5783586A", "about": "“Heteroarylmethoxyphenylthioalkyl carboxylates as inhibitors of leukotriene biosynthesis” (Abbott Laboratories, priority 1996, dated 1998)", "key": {"leukotriene biosynthesis": {"system": "leukotriene biosynthesis", "test": "Ionophore A23187-Induced Rat Pleural Inflammation Model (leukotriene biosynthesis inhibition in vivo)", "conditions": "1 h, male rats, dosed in 0.2% methocel one hour prior to intrapleural A23187, eicosanoids in pleural lavage", "procedure": "Lipoxygenase Inhibition Determination in vivo\nInhibition of leukotriene biosynthesis in vivo was evaluated using the lonophore A32187-Induced Rat Plueral Inflammation Model. Pleural inflammation was induced in male rats following the method of Rao, et al (Rao, T. S., Currie, J. L., Shaffer, A. F., Isakson, P. C., (1993) Evaluation of 5-lipoxygenase Inhibitors, Zileuton, A-78773 and ICI D-2138 in an Ionophore (A-23187) Induced Pleural Inflammation Model in the Rat, Life Sciences, 53: 147 (1993)). Rats were dosed with experimental compounds in 0.2% methocel one hour prior to the intrapleural injection of the calcium ionophore, A23187. The rats where lightly anesthetized with Pentrane (Abbott Laboratories) and injected intrapleurally with 0.5 ml of 2% ethanol in injectable saline (Abbott Laboratories) containing 20 μg of A23187 (Cal BioChem-Novabiochem). Thirty minutes later the animals were euthanised and the pleural cavities lavaged with ice cold saline (Abbott Laboratories). The lavage fluid was then added to ice cold methanol (final methanol concentration 30%) to lyse cells and precipitate protein. Eicosanoids were determined by enzyme immunoassay by standard methods."}, "[1]": {"system": "leukotriene biosynthesis (LTB4) in human polymorphornuclear leukocytes (PMNL)", "test": "calcium ionophore-induced LTB4 in human PMNL (leukotriene biosynthesis inhibition in vitro)", "assay_type": "cell-based", "conditions": "calcium ionophore 8.3 μM, 15 min preincubation, LTB4 measured", "procedure": "Lipoxygenase Inhibition Determination in vitro\nInhibition of leukotriene biosynthesis was evaluated in vitro using an assay involving calcium ionophore-induced LTB4 expressed in human polymorphornuclear leukocytes (PMNL). Human PMNL isolated from heparinized (20 USP units/mL) venous blood (25 mL) obtained from healthy volunteers was layered over an equal volume of Ficoll-Hypaque Mono-Poly Resolving Medium (ICN Flow, Costa Mesa, Calif.) and centrifugated at 400 × g for 40 minutes at 20° C. The PMNL was collected, erythrocytes lysed and washed 2× and suspended at 1.0×10^7 cells/ml in Earle's balanced salt solution with 17 mM Earle's HEPES. Aliquots of the cell suspension were preincubated with test compounds dissolved in DMSO (final concentration <2%) for 15 minutes and stimulated with calcium ionophore (final concentration 8.3 μM) for 10 minutes at 37° C. Incubations were stopped with the addition of two volumes of ice-cold methanol followed by centrifuging the cell suspensions at 4° C. for 10 minutes at 450 × g. The amount of LTB4 in the methanol extract was analyzed by enzyme-linked immunoassay or by HPLC analysis."}}}
{"smiles": "CC(SCC(=O)O)(c1ccc(OCc2ccc3ccccc3n2)cc1)c1ccc(OCc2ccc3ccccc3n2)cc1", "note": "[Example 1, 1,1-bis(4-(2-quinolylmethoxy)phenyl)eth-1-ylthioacetic acid]", "values": [{"measurement": "ED50", "setting": "leukotriene biosynthesis", "result": 1.1, "unit": "mg/kg"}, {"measurement": "IC50", "setting": "[1]", "result": 230, "unit": "nM"}]}
